# Measured values: patent publication US6043045A, “Screening methods for the identification of novel antibiotics” (The Scripps Research Institute, priority 1998, dated 2000)
# “Also recorded” adds a separate entry of the source.
# B1: KinA (histidine protein kinase) (Bacillus subtilis subsp. subtilis str. 168) (protein)
# chain: MEQDTQHVKPLQTKTDIHAVLASNGRIIYISANSKLHLGYLQGEMIGSFLKTFLHEEDQFLVESYFYNEHHLMPCTFRFIKKDHTIVWVEAAVEIVTTRAERTEREIILKMKVLEEETGHQSLNCEKHEIEPASPESTTYITDDYERLVENLPSPLCISVKGKIVYVNSAMLSMLGAKSKDAIIGKSSYEFIEEEYHDIVKNRIIRMQKGMEVGMIEQTWKRLDGTPVHLEVKASPTVYKNQQAELLLLIDISSRKKFQTILQKSRERYQLLIQNSIDTIAVIHNGKWVFMNESGISLFEAATYEDLIGKNIYDQLHPCDHEDVKERIQNIAEQKTESEIVKQSWFTFQNRVIYTEMVCIPTTFFGEAAVQVILRDISERKQTEELMLKSEKLSIAGQLAAGIAHEIRNPLTAIKGFLQLMKPTMEGNEHYFDIVFSELSRIELILSELLMLAKPQQNAVKEYLNLKKLIGEVSALLETQANLNGIFIRTSYEKDSIYINGDQNQLKQVFINLIKNAVESMPDGGTVDIIITEDEHSVHVTVKDEGEGIPEKVLNRIGEPFLTTKEKGTGLGLMVTFNIIENHQGVIHVDSHPEKGTAFKISFPKK
# notes: made in house; host or cells: E. coli (printed "E. coil")
# B2: KinA (Bacillus subtilis subsp. subtilis str. 168) (protein)
# chain: MEQDTQHVKPLQTKTDIHAVLASNGRIIYISANSKLHLGYLQGEMIGSFLKTFLHEEDQFLVESYFYNEHHLMPCTFRFIKKDHTIVWVEAAVEIVTTRAERTEREIILKMKVLEEETGHQSLNCEKHEIEPASPESTTYITDDYERLVENLPSPLCISVKGKIVYVNSAMLSMLGAKSKDAIIGKSSYEFIEEEYHDIVKNRIIRMQKGMEVGMIEQTWKRLDGTPVHLEVKASPTVYKNQQAELLLLIDISSRKKFQTILQKSRERYQLLIQNSIDTIAVIHNGKWVFMNESGISLFEAATYEDLIGKNIYDQLHPCDHEDVKERIQNIAEQKTESEIVKQSWFTFQNRVIYTEMVCIPTTFFGEAAVQVILRDISERKQTEELMLKSEKLSIAGQLAAGIAHEIRNPLTAIKGFLQLMKPTMEGNEHYFDIVFSELSRIELILSELLMLAKPQQNAVKEYLNLKKLIGEVSALLETQANLNGIFIRTSYEKDSIYINGDQNQLKQVFINLIKNAVESMPDGGTVDIIITEDEHSVHVTVKDEGEGIPEKVLNRIGEPFLTTKEKGTGLGLMVTFNIIENHQGVIHVDSHPEKGTAFKISFPKK
# notes: made in house
# Assays:
# KinA [1] = target: T1, KinA (Bacillus subtilis, UniProt P16497); test: biochemical; type: biochemical
# T1 construct: made in house
# T1 sequence (P16497 1-606): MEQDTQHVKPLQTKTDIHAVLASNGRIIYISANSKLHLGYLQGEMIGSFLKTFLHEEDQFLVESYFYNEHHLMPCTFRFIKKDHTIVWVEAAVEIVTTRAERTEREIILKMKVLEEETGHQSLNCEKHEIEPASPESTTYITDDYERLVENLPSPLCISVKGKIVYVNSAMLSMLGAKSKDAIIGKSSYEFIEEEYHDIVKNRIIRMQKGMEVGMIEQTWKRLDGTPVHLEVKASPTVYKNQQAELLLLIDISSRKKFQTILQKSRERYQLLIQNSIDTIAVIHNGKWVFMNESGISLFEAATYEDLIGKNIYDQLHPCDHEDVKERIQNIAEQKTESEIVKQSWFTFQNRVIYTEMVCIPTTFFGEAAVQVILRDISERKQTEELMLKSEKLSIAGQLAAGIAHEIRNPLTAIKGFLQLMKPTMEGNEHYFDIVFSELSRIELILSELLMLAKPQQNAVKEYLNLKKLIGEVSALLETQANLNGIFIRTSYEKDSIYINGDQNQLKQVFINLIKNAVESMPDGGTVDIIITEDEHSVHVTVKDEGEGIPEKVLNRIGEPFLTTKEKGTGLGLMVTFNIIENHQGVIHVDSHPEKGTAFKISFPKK
# Protocol: The reactions were performed in a 25 μl final volume containing 100 mM Tris pH 8.0, 100 mM KCl, 2 mM MgCl2, 0.5 mM dithiothreitol, 10% (v/v) glycerol, 0.1 % (w/v) gelatin, 4% (v/v) ethanol, 200 μM total ATP containing approximately 1.5 μCi [gamma-^32 P]ATP (New England Nuclear, 6000 Ci/mMol, 150 μCi/ml), 300 μM SpoOF protein and 0.04 μM KinA protein (Perego, et al., J. Bacteriol. 171: 6187-6196 (1989)) unless otherwise indicated. Fatty acids were added to varying final concentration from solutions made with 100% ethanol (the 4% ethanol concentration in the reaction mixture reflects these addition, or in the case of controls, the addition of ethanol alone). The reactions were initiated by addition of the ATP and incubated for thirty minutes at room temperature.
# When higher KinA concentrations were used, the time of incubation was adjusted accordingly. The reactions were stopped by adding an equal volume of loading dye (0.25 M Tris pH 6.8, 20% (v/v) glycerol, 1% sodium dodecyl sulfate (w/v), 140 mM β-mercaptoethanol, 0.05% (w/v) bromophenol blue) and aliquots were loaded onto polyacrylamide gels (5% stacking, 15% separating, using the buffer system of Laemmi, Id., 1970).
# The gels were run for approximately 16 hours at 10 mA constant current. The gels were covered with plastic wrap and subjected to autoradiography using Kodak XOmat RP1 film. Quantitation of activity was accomplished by cutting gels slices containing the appropriate phosphoprotein (usually SpoOF~P, see Section E below) and counting the Cerenkov radiation in a Beckman LF7500 scintillation counter (Beckman Instruments, Fullerton, Calif.). Equal-sized slices from blank areas of the gels were also counted and used to adjust for background. Percentage of activity was calculated using the value of the control reaction as 100%.
# To quantify our initial assessment of inhibitory properties, the I0.5 values (at 4×10^-8 M KinA) were determined for each of the fatty acids. […] For example, the percent activity at an indicated oleic acid concentration is the ratio (×100) of the incorporation of ^32 P (from [γ^32 P]ATP) into the SpoOF protein relative to the incorporation in the control reaction containing no inhibitor. Typically, data are gathered from at least two different experiments. The I0.5 value is the concentration--e.g., the oleic acid concentration--corresponding to 50% activity as determined from the relevant graph.
# KinA [2] = target: T1, KinA; test: KinA autophosphorylation assay at higher KinA concentration and ATP competition series; type: biochemical
# Protocol: (§1) The above-noted experiments were performed using a KinA concentration of […]. At this concentration, a band corresponding to KinA~P was not visible on the autoradiographs. Therefore, it could not be determined if the inhibition occurred at the KinA autophosphorylation step or at the phosphotransferase reaction between KinA~P and SpoOF. To address this question, assays were performed using a higher KinA concentration (1×10^-6 M). The prevention of stable autophosphorylation of KinA by oleic acid was confirmed. Data was gathered which verified the incorporation of ^32 P from [γ^32 P]ATP into the KinA protein in the presence of SpoOF and differing concentrations of oleic acid (not shown). The assay was performed as disclosed hereinabove, except that the KinA concentration was increased to 1×10^-6 M and the incubation time was shortened to three minutes.
# (§2) To determine the nature of the fatty acid inhibition of autophosphorylation, three series of reactions were performed. In the first series, no oleic acid was present; the second contained 2.5×10^-5 M oleic acid; the third contained 7.0×10^-5 M oleic acid. […] Even at the lowest oleic acid concentration (2.5×10^-5 M) and highest ATP level (2×10^-3 M), the KinA was greater than 95% inhibited.
# KinA [3] = target: T1, KinA; test: Test whether fatty acids serve as substrate for KinA-catalyzed phosphorylation (heptane partition); type: biochemical; details: KinA 2 μM, no SpoOF, radioactivity in organic phase
# Protocol: To determine if fatty acids served as a substrate for KinA-catalyzed phosphorylation, the following method was used. The above reaction conditions were employed except that no SpoOF was present; the KinA was at 2 μM and the reactions incubated for 5 minutes prior to the addition of fatty acids. After this initial incubation, to allow autophosphorylation to occur, 48 μl aliquots were added to tubes containing (a) two μl ethanol; (b) 2 μl of 2% oleic acid; and (c) 2 μl of 2% palmitic acid. The reactions were allowed to incubate 10 minutes after which time 0.5 ml H2 O and 0.5 ml heptane were added to each. After 10 minutes at room temperature, the phases were separated by centrifugation. The aqueous phases were washed with H2 O-saturated heptane and the heptane phases washed with heptane-saturated H2 O. The Cerenkov radiation in each phase and wash was determined.
# Oleic acid was added to a reaction mixture containing KinA~[^32 P], and after a suitable incubation, the mixture was separated into organic and aqueous phases (as described above). Under the conditions used, fatty acid species would partition into the organic phase leaving the KinA~P and unincorporated [γ^32 P]ATP in the aqueous phase. The amount of radioactivity in the organic phase containing oleic acid was negligible and no different from the amount present in the control reactions (data not shown).
# KinA~P = target: T2, KinA~P (Bacillus subtilis, UniProt P16497); test: Dephosphorylation of preformed KinA~P; type: biochemical; details: oleic acid 2.5×10^-4M, no SpoOF
# T2 construct: made in house
# Protocol: Next, the ability of oleic acid to enhance the dephosphorylation of preformed KinA~P was investigated. Autophosphorylation of in the presence of [γ^32 P]ATP was allowed to proceed for 60 minutes in the absence of SpoOF. At the end of this incubation, the reaction was divided into two aliquots, one receiving oleic acid to a final concentration of 2.5×10^-4M. Samples from each were withdrawn at timed intervals, fractionated on polyacrylamide gels, the KinA bands excised and the incorporated radioactivity determined.
# [4] = substrate: Nc1ncnc2c1ncn2[C@@H]1O[C@H](COP(=O)(O)OP(=O)(O)OP(=O)(O)O)[C@@H](O)[C@H]1O; test: Phosphorylation of His-SpoOF immobilized on Ni-resin by KinA (high throughput assay); type: biochemical, Bacillus subtilis; details: 1 μM KinA, 22° C., 20 min
# Protocol: Phosphorylation of immobilized His-SpoOF was carried out using the MultiScreen 96-well filtration plate (0.65 μm, type DVPP) from Millipore (Bedford, Mass.). The removal of liquid from the wells of the filtration plate was done with the vacuum manifold from Millipore. The His-SpoOF resin (25%, v/v) was placed into individual wells of the filtration plate and washed twice with 200 μl buffer A. A total volume of 80 μl of buffer A containing the indicated amounts of KinA, ATP, and [γ-^32 P]ATP was added to the wells.
# The plate was then incubated for the indicated period of time at 22° C. with gentle shaking. The reaction was terminated by removal of the reaction mixture from the wells followed by three washes of the resin with buffer A.
# The resin was then washed three times with buffer A containing 30 mM imidazole with 5 min. incubation/shaking and another three times with buffer A only. […]
# For analysis by scintillation counting, 80 μl of 0.2 N HCl was added to each of the wells and the plate was incubated at 55° C. with gentle shaking for 1 hour. […] To each of the wells of the MicroFluor plate, 150 μl of MicroScint-40 (Packard, Meriden, Conn.) was added and the radioactivity was counted using the TopCount from Packard. […]
# [5] = substrate: Nc1ncnc2c1ncn2[C@@H]1O[C@H](COP(=O)(O)OP(=O)(O)OP(=O)(O)O)[C@@H](O)[C@H]1O; test: KinA autophosphorylation assay at higher KinA concentration and ATP competition series; type: biochemical, Bacillus subtilis; details: other: KinA
# Protocol: as §1, §2
molecule,measurement,setting,value
CCCCCCCC/C=C\CCCCCCCC(=O)O [cis-9-octadecanoic],inhibitory effect on KinA in vitro (in words),KinA [1],potent inhibitors
same,IC50,"KinA [1]; Table 4, I0.5 at 4×10^-8 M KinA, 32P incorporation into SpoOF, read-out: Fatty Acid Inhibitors of KinA Activity (category by I0.5)",< 70 µM
same,inhibition of KinA phosphorylation of SpoOF (in words),KinA [1]; tested at 0.08% final concentration,essentially complete inhibition
same,inhibition of KinA,"KinA [2]; 2.5×10^-5 M oleic acid, highest ATP level 2×10^-3 M",greater than 95%
same,competition of inhibition with ATP,"KinA [2]; ATP 2×10^-5 to 2×10^-3 M, oleic acid 2.5×10^-5 and 7.0×10^-5 M",ATP is not competitive with oleic acid inhibition
same,phosphotransfer from KinA~P to SpoOF,KinA [2]; KinA 1×10^-6 M,can also inhibit the phosphotransfer from KinA~P to SpoOF
same,formation of KinA~P and SpoOF~P,"KinA [2]; KinA 1×10^-6 M, 3 min, differing oleic acid concentrations",inhibits the formation of KinA~P and SpoOF~P in a concentration-dependent fashion; also recorded: acts to inhibit the autophosphorylation of KinA
same,substrate for KinA catalyzed phosphorylation,KinA [3],did not serve as a substrate
same,loss of 32P from preformed KinA~P versus reaction without oleic acid,KinA~P,no significant difference
B1,Km,[4]; other: SDS-PAGE analysis,72 µM
same,Km,[4]; other: scintillation counting,70 µM
B2,Km,[5],130 µM
